Results: patent US20100190225A1, “D-PSICOSE PRODUCTION METHOD BY D-PSICOSE EPIMERASE” (CJ CHEILJEDANG CORP., priority 2005, published 2010)
Read-outs that look alike come from different tables or passages of the source.

T1: psicose 3-epimerase (Agrobacterium fabrum, UniProt A9CH28)
T1 construct: made in house; host or cells: Escherichia coli BL21(DE3)
T1 sequence (A9CH28 with tags, fused parts or gaps): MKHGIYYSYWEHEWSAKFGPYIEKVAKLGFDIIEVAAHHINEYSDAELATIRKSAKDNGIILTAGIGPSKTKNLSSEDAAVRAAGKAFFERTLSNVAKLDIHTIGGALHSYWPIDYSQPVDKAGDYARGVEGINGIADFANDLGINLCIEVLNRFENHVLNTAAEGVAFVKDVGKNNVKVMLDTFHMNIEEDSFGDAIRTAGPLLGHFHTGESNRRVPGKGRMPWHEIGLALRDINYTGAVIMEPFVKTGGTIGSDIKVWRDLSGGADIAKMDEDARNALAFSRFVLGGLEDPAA


Tests used:
psicose 3-epimerase [1] = biological target: T1, psicose 3-epimerase; type: biochemical; conditions: for Relative activity (%): 1 mM metal ion added or EDTA treatment, 1.0% D-fructose, pH 7.5, 50° C., 20 minutes, None = 100; for effect of metal ion on enzyme activity: 1 mM metal ion, in words
Procedure: The enzyme activity was measured by using D-fructose as a substrate. For the measurement of the enzyme activity, psicose 3-epimerase was allowed to react with D-fructose in a 50 mM PIPES buffer solution containing 1.0% of D-fructose, at pH 7.5 and at 50° C. for 20 minutes, and then the reaction solution was heated at 100° C. for 5 minutes to terminate the reaction. […] For the purpose of easy comparison of the enzyme activity, one unit of psicose 3-epimerase is defined as the amount of the psicose 3-epimerase needed to produce 1 mole of D-psicose per one minute at pH 7.5 and at 50° C.
In order to investigate the effect of the addition of a metal ion, the enzyme activity of the psicose 3-epimerase was measured after treating the psicose 3-epimerase with EDTA, or after adding 1 mM each of the metal ions indicated in Table 1 below, to the psicose 3-epimerase. Reaction of the psicose 3-epimerase was performed in a 50 mM PIPES buffer solution containing 0.04 units/ml of the psicose 3-epimerase and 1.0% by weight of D-fructose at pH 7.5 and at 50° C. for 20 minutes, and then the reaction solution was heated at 100° C. for 5 minutes to terminate the reaction. Then, the enzyme activity of the psicose 3-epimerase was measured.

psicose 3-epimerase [2] = biological target: T1, psicose 3-epimerase; assay: Substrate specificity of psicose 3-epimerase; type: biochemical; conditions: for Relative activity (%) No metal ion added / Relative activity (%) Mn^2+ added: 10 mM monosaccharide as substrate, pH 7.5, 50° C., 20 minutes
Procedure: In the current Experimental Example, MALDI-TOF-MS was used for the measurement of the molecular weight of psicose 3-epimerase, and cinnamic acid was used as a matrix. The enzyme activity was measured by using D-fructose as a substrate. For the measurement of the enzyme activity, psicose 3-epimerase was allowed to react with D-fructose in a 50 mM PIPES buffer solution containing 1.0% of D-fructose, at pH 7.5 and at 50° C. for 20 minutes, and then the reaction solution was heated at 100° C. for 5 minutes to terminate the reaction. The PIPES buffer solution containing D-fructose was prepared by dissolving D-fructose in PIPES buffer solution at pH 7 to 8 to a concentration of 60 to 70% by weight, and the PIPES buffer solution containing D-fructose was continuously added to a bioreactor maintained at 40 to 60° C. For the purpose of easy comparison of the enzyme activity, one unit of psicose 3-epimerase is defined as the amount of the psicose 3-epimerase needed to produce […] of D-psicose per one minute at pH 7.5 and at 50° C.
The concentrations of D-fructose, D-psicose, D-sorbose, D-tagatose, D-xylulose and D-ribulose were measured using a high pressure liquid chromatography system with a BP-100 calcium ion […] column and an RI detector. The column was conditioned to allow a flow of distilled water at a rate of 0.5 ml/min at 80° C.
Reaction of the psicose 3-epimerase was performed in a 50 mM PIPES buffer solution containing 0.04 units/ml of the psicose 3-epimerase and 10 mM each individually of the monosaccharides indicated in Table 2 below, at pH 7.5 and at 50° C. for 20 minutes, and then each of the reaction solutions were heated at 100° C. for 5 minutes to terminate the reaction. Then, the enzyme activity of the psicose 3-epimerase of each reaction solution was measured.

[3] = in words; cited from earlier work
lipogenic enzymes = conditions: dietary, in words; cited from earlier work
[4] = Equilibrium between D-psicose and D-fructose achieved by psicose 3-epimerase; type: biochemical
Procedure: In Example 6, the reaction of the psicose 3-epimerase was performed in a 50 mM PIPES buffer solution containing 0.04 units of psicose 3-epimerase/ml, 1 mM of Mn^2+ ions, and 0.1% of D-psicose and D-fructose together, at pH 7.0 and at temperatures ranging from 30° C. to 60° C. for 24 hours to allow the reaction to proceed sufficiently, in order to determine the equilibrium between D-psicose and D-fructose. Then, the reactions were terminated by heating the reaction solution at 100° C. for 5 minutes, and the enzyme activity was measured.
As a result, the reaction was started with 5 initial ratios of D-psicose to D-fructose, of 0:100, 25:75, 50:50, 75:25, and 100:0, and the final ratios of D-psicose to D-fructose were determined after 24 hours of the reaction, as shown in FIG. 2. Referring to FIG. 2, the ratio of D-psicose to D-fructose was 32:68 at 30° C., while the same ratio was 37:63 at 60° C.

[5] = D-psicose production by free psicose 3-epimerase; type: biochemical; conditions: 700 g/L D-fructose; for D-Psicose: 14 units/ml, 1 mM Mn^2+, pH 7.0, 60° C.
Procedure: In order to produce D-psicose at high concentrations, the reaction was performed in a 50 mM PIPES buffer solution containing 14 units of psicose 3-epimerase/ml, 1 mM of Mn^2+ ions, and 700 g/L of D-fructose, at pH 7.0 and at 60° C. for various reaction times. Then, the reaction was terminated by heating the reaction solution at 100° C. for 5 minutes, and the enzyme activity was measured.

[6] = Activity of psicose 3-epimerase according to pH and temperature changes; type: biochemical
Procedure: In Example 5, the psicose 3-epimerase was reacted with D-fructose at various pH values and temperatures, and the enzyme activities obtained at the various pH values and temperatures were compared. In order to investigate the pH effect, the reaction of the psicose 3-epimerase was performed in a 50 mM PIPES buffer solution containing 0.04 units of psicose 3-epimerase/ml and 1.0% of D-fructose at pH values ranging from 6.5 to 7.5, and the same reaction was performed in a 50 mM EPPS buffer solution containing 0.04 units of psicose 3-epimerase/ml and 1.0% of D-fructose at pH values ranging from 7.5 to 8.5. Here, the respective reactions were performed at 50° C. when metal ions were not added, and at 60° C. when Mn ions were added, respectively for 20 minutes. Then, the reactions were terminated by heating the reaction solutions at 100° C. for 5 minutes, and the enzyme activities were measured. The results are illustrated in FIG. 1A.
In order to investigate the temperature effect, the reaction was performed in a 50 mM PIPES buffer solution containing 0.04 units of psicose 3-epimerase/ml and 1.0% of D-fructose at temperatures ranging from 30° C. to 70° C. for 20 minutes, at pH 7.5 when metal ions were not added, and at pH 7.0 when Mn ions were added. The reactions were terminated by heating the reaction solution at 100° C. for 5 minutes, and the enzyme activities were measured. The results are illustrated in FIG. 1B.

Row | Molecule | Relative activity (%) (psicose 3-epimerase [1]) | Relative activity (%) No metal ion added (psicose 3-epimerase [2]) | Relative activity (%) Mn^2+ added (psicose 3-epimerase [2]) | also measured
1 | [Al+3] [Al^3+] | 100% |  |  | 
2 | [Ba+2] [Ba^2+] | 95.6% |  |  | 
3 | [Ca+2] [Ca^2+] | 64.4% |  |  | 
4 | [Co+2] [Co^2+] | 268% |  |  | effect of metal ion on enzyme activity (psicose 3-epimerase [1]): enhanced the enzyme activity
5 | [Cu+2] [Cu^2+] | 2.2% |  |  | effect of metal ion on enzyme activity (psicose 3-epimerase [1]): suppressed the enzyme activity
6 | O=C(CO)[C@@H](O)[C@H](O)[C@H](O)COP(=O)(O)O [D-Fructose-6-phosphate] |  | 0.0% | 0.0% | 
7 | O=C(CO)[C@@H](O)[C@H](O)[C@H](O)CO [D-Fructose] |  | 37.9% | 139% | 
8 | O=C(CO)[C@H](O)[C@H](O)[C@H](O)CO [D-Psicose] |  | 100% | 274% | metabolism in the human body [3]: almost non-metabolizable; affinity of the psicose 3-epimerase for substrate (psicose 3-epimerase [2]; D-psicose compared with D-tagatose, in words): higher affinity; effect on activity of lipogenic enzymes (lipogenic enzymes): suppressing the activity of lipogenic enzymes
9 | O=C(CO)[C@H](O)[C@H](O)COP(=O)(O)O [D-Ribulose-5-phosphate] |  | 0.0% | 0.0% | 
10 | O=C(CO)[C@H](O)[C@H](O)CO [D-Ribulose] |  | 10.2% | 15.4% | 
11 | O=C(CO)[C@H](O)[C@@H](O)[C@H](O)CO [D-Sorbose] |  | 0.8% | 1.7% | 
12 | O=C(CO)[C@@H](O)[C@@H](O)[C@H](O)CO [D-Tagatose] |  | 65.5% | 92.3% | 
13 | O=C(CO)[C@@H](O)[C@H](O)CO [D-Xylulose] |  | 5.8% | 12.4% | 
14 | O=C(O)CN(CCN(CC(=O)O)CC(=O)O)CC(=O)O [EDTA] | 20.0% |  |  | 
15 | [Fe+3] [Fe^3+] | 121% |  |  | Relative activity (%) (psicose 3-epimerase [1]; listed as Fe^2+): 139%
16 | [Mg+2] [Mg^2+] | 100% |  |  | 
17 | [Mn+2] [Mn^2+] | 274% |  |  | effect of metal ion on enzyme activity (psicose 3-epimerase [1]): enhanced the enzyme activity
18 | [Mo+2] [Mo^2+] | 93.3% |  |  | 
19 | [Zn+2] [Zn^2+] | 4.4% |  |  | effect of metal ion on enzyme activity (psicose 3-epimerase [1]): suppressed the enzyme activity
20 | psicose 3-epimerase: enzyme (SEQ ID NO:1) from Agrobacterium tumefaciens ATCC33970 that converts D-fructose to D-psicose; monomer, metalloenzyme (protein, listed as Agrobacterium tumefaciens) MKHGIYYSYWEHEWSAKFGPYIEKVAKLGFDIIEVAAHHINEYSDAELATIRKSAKDNGIILTAGIGPSKTKNLSSEDAAVRAAGKAFFERTLSNVAKLDIHTIGGALHSYWPIDYSQPVDKAGDYARGVEGINGIADFANDLGINLCIEVLNRFENHVLNTAAEGVAFVKDVGKNNVKVMLDTFHMNIEEDSFGDAIRTAGPLLGHFHTGESNRRVPGKGRMPWHEIGLALRDINYTGAVIMEPFVKTGGTIGSDIKVWRDLSGGADIAKMDEDARNALAFSRFVLGGLEDPAA |  |  |  | superiority to the yield achievable by conventional methods of producing D-psicose [4]: approximately 20%; D-Psicose ([5]; reaction time 0 min): 0 g/L; D-Psicose ([5]; reaction time 10 min): 93 g/L; D-Psicose ([5]; reaction time 30 min): 155 g/L; D-Psicose ([5]; reaction time 60 min): 180 g/L; D-Psicose ([5]; reaction time 120 min): 211 g/L; D-psicose conversion yield ([5]; reaction time 120 minutes): 30.2%; D-Psicose ([5]; reaction time 180 min): 210 g/L; D-Psicose ([5]; reaction time 240 min): 210 g/L; D-Psicose ([5]; reaction time 300 min): 209 g/L; optimal pH ([6]; Mn^2+ ions added): 7.0; optimal temperature ([6]; Mn^2+ ions added): 60 °C; optimal pH ([6]; metal ions not added): 7.5; optimal temperature ([6]; metal ions not added): 50 °C
